Assay results from ChEMBL document CHEMBL1135343, “Glutathione-like tripeptides as inhibitors of glutathionylspermidine synthetase. Part 2: substitution of the glycine part” (Bioorg Med Chem Lett, 2002).
“And” between values parts separate entries of the source, which are not always exact repeats. Equal values may be shown once. Numbered stars: 1 amine (or outer) side, 2 acyl side, 3 side chain; on linkers, the order of the positions; unused ones are H or OH. Square brackets hold non-standard residues; d marks the D form. Peptide text beside a SMILES is read from it. γGlu = O=C(O)[C@H](CCC(=O)[*:2])N[*:1]; Orn = NCCC[C@H](N)C(=O)O; Dab = NCC[C@H](N)C(=O)O; Nva = CCC[C@H](N)C(=O)O; Dap = NC[C@H](N)C(=O)O

Tests used:
[1] = biological target: T1, Glutathionylspermidine synthase (Crithidia fasciculata) (UniProt P90518); experiment: (§1) Tested against glutathionylspermidine synthetase (GspS) in Crithidia fasciculata; parameters: concentration or dose not given beside the values; settings: concentration not given here
T1 sequence (whole entry): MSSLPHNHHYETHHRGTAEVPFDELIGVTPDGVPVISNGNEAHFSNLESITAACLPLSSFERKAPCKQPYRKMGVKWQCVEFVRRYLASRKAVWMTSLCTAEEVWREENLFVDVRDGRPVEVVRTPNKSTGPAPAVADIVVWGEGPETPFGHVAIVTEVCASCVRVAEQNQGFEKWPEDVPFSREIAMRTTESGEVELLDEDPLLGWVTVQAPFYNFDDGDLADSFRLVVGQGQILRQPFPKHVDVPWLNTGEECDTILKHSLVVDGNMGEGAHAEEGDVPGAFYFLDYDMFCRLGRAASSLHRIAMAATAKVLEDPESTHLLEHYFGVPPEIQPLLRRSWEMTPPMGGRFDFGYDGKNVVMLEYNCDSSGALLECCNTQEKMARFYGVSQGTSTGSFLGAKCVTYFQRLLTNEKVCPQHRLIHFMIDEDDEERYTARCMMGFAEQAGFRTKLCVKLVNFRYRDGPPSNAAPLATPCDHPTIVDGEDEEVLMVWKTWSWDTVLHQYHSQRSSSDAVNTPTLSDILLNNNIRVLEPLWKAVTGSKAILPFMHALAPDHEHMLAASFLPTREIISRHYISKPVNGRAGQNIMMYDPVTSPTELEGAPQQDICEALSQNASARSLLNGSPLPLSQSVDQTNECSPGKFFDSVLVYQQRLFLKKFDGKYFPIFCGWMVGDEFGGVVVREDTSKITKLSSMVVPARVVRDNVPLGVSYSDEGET

[2] = biological target: T2, Glutathionylspermidine synthase (Crithidia fasciculata, UniProt P90518); experiment: as §1
T2 sequence (P90518 whole entry): T1 sequence (whole entry)

[3] = biological target: T2, Glutathionylspermidine synthase; experiment: Inhibitory constant against glutathionylspermidine synthetase (GspS) in Crithidia fasciculata

Q: Which inhibition [1] does the source give for `CC(C)C[C@H](NC(=O)CC[C@H](N)C(=O)O)C(=O)N[C@@H](CCCCNCCCN)C(=O)O` here?
A: 93%

Q: And the IC50 [2]?
A: 23 µM

Q: And the Ki [3]?
A: 33 µM and 59 µM

Q: For `CC(C)C[C@H](NC(=O)CC[C@H](N)C(=O)O)C(=O)N[C@@H](CCCCNCCCCN)C(=O)O`, which inhibition [1] is on record?
A: 94%

Q: And the IC50 [2]?
A: 27.9 µM

Q: What about the Ki [3] of the same compound?
A: 32 µM and 86 µM

Q: Which results are given for `CC(C)C[C@H](NC(=O)CC[C@H](NC(=O)OC(C)(C)C)C(=O)OC(C)(C)C)C(=O)N[C@@H](CCCCNCCCNC(=O)OC(C)(C)C)C(=O)O`?
A: inhibition [1]: 62%; IC50 [2]: 157 µM

Q: Which results are given for `CC(C)C[C@H](NC(=O)[C@H](CC(C)C)NC(=O)CC[C@H](N)C(=O)O)C(=O)O`?
A: inhibition [1]: 59%; IC50 [2]: 365 µM

Q: `CC(C)C[C@H](NC(=O)CC[C@H](N)C(=O)O)C(=O)N[C@@H](CCCN=C(N)N)C(=O)O` was tested. Which inhibition [1] did it give?
A: 95%

Q: What about the IC50 [2] of the same compound?
A: 9.4 µM

Q: And the Ki [3]?
A: 6.4 µM and 17 µM

Q: `CCCC[C@H](NC(=O)[C@H](CC(C)C)NC(=O)CC[C@H](N)C(=O)O)C(=O)O` was tested. Which inhibition [1] did it give?
A: 53%

Q: How did the inhibition [1] turn out when `CC(C)C[C@H](NC(=O)CC[C@H](N)C(=O)O)C(=O)N[C@@H](C)C(=O)O` (γGlu-Leu-Ala-OH) was run?
A: 87%

Q: What about the IC50 [2] of the same compound?
A: 90 µM

Q: Which results are given for `CC(C)C[C@H](NC(=O)CC[C@H](N)C(=O)O)C(=O)N[C@@H](CC(N)=O)C(=O)O` (γGlu-Leu-Asn-OH)?
A: inhibition [1]: 68%; IC50 [2]: 142 µM

Q: Which results are given for `CC(C)C[C@H](NC(=O)CC[C@H](N)C(=O)O)C(=O)N[C@@H](CC(=O)O)C(=O)O` (γGlu-Leu-Asp-OH)?
A: inhibition [1]: 69%; IC50 [2]: 156 µM

Q: `CC(C)C[C@H](NC(=O)CC[C@H](N)C(=O)O)C(=O)N[C@@H](CCC(=O)O)C(=O)O` (γGlu-Leu-Glu-OH) was tested. Which inhibition [1] did it give?
A: 60%

Q: What about the IC50 [2] of the same compound?
A: 227 µM

Q: For `CC(C)C[C@H](NC(=O)CC[C@H](N)C(=O)O)C(=O)NCC(=O)O` (γGlu-Leu-Gly-OH), which inhibition [1] is on record?
A: 0%

Q: Which results are given for `CC(C)C[C@H](NC(=O)CC[C@H](N)C(=O)O)C(=O)N[C@@H](CCCCN)C(=O)O` (γGlu-Leu-Lys-OH)?
A: inhibition [1]: 93%; IC50 [2]: 18 µM; Ki [3]: 27 µM and 48 µM

Q: Which results are given for `CC(C)C[C@H](NC(=O)CC[C@H](N)C(=O)O)C(=O)N[C@@H](CO)C(=O)O` (γGlu-Leu-Ser-OH)?
A: inhibition [1]: 94%; IC50 [2]: 11.7 µM; Ki [3]: 14 µM and 25 µM

Q: What does the source list for `CC(C)C[C@H](NC(=O)CC[C@H](N)C(=O)O)C(=O)N[C@@H](CCN)C(=O)O` (γGlu-Leu-[Dab]-OH)?
A: inhibition [1]: 95%; IC50 [2]: 13.7 µM; Ki [3]: 10.4 µM and 24 µM

Q: Which results are given for `CC(C)C[C@H](NC(=O)CC[C@H](N)C(=O)O)C(=O)N[C@@H](CN)C(=O)O` (γGlu-Leu-[Dap]-OH)?
A: inhibition [1]: 97%; IC50 [2]: 9.1 µM; Ki [3]: 7.2 µM and 21 µM

Q: What does the source list for `CCC[C@H](NC(=O)[C@H](CC(C)C)NC(=O)CC[C@H](N)C(=O)O)C(=O)O` (γGlu-Leu-[Nva]-OH)?
A: inhibition [1]: 70%; IC50 [2]: 145 µM

Q: `CC(C)C[C@H](NC(=O)CC[C@H](N)C(=O)O)C(=O)N[C@@H](CCCN)C(=O)O` (γGlu-Leu-[Orn]-OH) was tested. Which inhibition [1] did it give?
A: 95%

Q: And the IC50 [2]?
A: 10.3 µM

Q: And the Ki [3]?
A: 10 µM and 39 µM
